Experimental data from patent publication US20210139993A1, “METHOD FOR PREDICTING SURVIVAL IN CHILDREN WITH ACUTE LYMPHOBLASTIC LEUKEMIA” (UNIVERSITAT AUTONOMA DE BARCELONA, priority 2017, published 2021).

Tested on: childhood ALL patients with adverse cytogenetics harboring t(9; 22)
Experiment: Kaplan-Meier survival of childhood ALL patients by cytogenetic risk group
Type: in vivo, human
Conditions: five of the six cases with adverse cytogenetics
Source text: One hundred and seventy-three patients diagnosed with ALL and younger than 18 years were recruited from Sant Joan de Déu Hospital, Barcelona, Spain and from Cruces Hospital, Barakaldo, Spain between 1996 and 2012. Patients were all from Caucasian descent. […] Samples were extracted when patients were at complete remission or without cytogenetic aberrations affecting chromosomes where the polymorphisms are located. Clinical data were collected at diagnosis, including sex, age, leukemia type (T-cell, B-cell or mixed), WBC count, cytogenetic risk group and treatment protocol (Table 1). The different cytogenetic risk groups were classified according to the criteria from the Spanish Society of Pediatric Hematology and Oncology as follow: Presence of t(9; 22), t(4; 11) or MLL rearrangements at 11q23, or hipodiploidy (<44 chromosomes) was considered adverse group. Presence of 412; 21) or hiperdiploidy (>50 chromosomes) was considered favorable and all other cases were considered to belong to intermediate cytogenetic risk group. […] Every genotype was analyzed separately and moreover, in case of CNVs, null genotypes were tested vs. non-null genotypes, and in case of SNPs, heterozygotes were grouped together with either homozygote genotype.

## Cc1ccc(NC(=O)c2ccc(CN3CCN(C)CC3)cc2)cc1Nc1nccc(-c2cccnc2)n1 [imatinib]
  treatment outcome: successful
